Measured values from patent US7632851B2, “Benzo[1,2,5]oxadiazoles and benzol[1,2,5]thiadiazoles useful as histopathological staining agents, imaging agents and biomarkers” (Novartis AG, priority 2003, dated 2009).

Experiment: Fluorescence of the compound (precondition of the staining test)
Type: physicochemical
Procedure: Four-micrometer thick paraffin sections from an APP23 mouse at 26 months of age are deparaffinized in xylene and rehydrated. 10 mg of the compound are dissolved in 1 mL DMSO and diluted with deionized water 1:10. This staining solution is applied on sections for about 20 min. Section background is cleared by washing with 95% ethanol. Finally sections are dehydrated in 99% ethanol, cleared in xylene and mounted with Vectashield™. Sections are investigated using fluorescence microscopy with the following filter combination: Excitation 450490 nm, emission 510 nm. Twenty micrometer thick cryotom sections from a AD brain cortex are air dried and fixated in 4% PFA for 5 min. After washing in tap water sections are stained either with Thioflavine S or with the compound for 5 min and further processed as described above. The compound is dissolved in DMSO and diluted to a final concentration of 0.01% with 50% Ethanol, Thioflavine S is dissolved in 50% Ethanol, final concentration is 0.01%.

Fluorescence, not fluorescent:
O=C(NCCF)c1cnccc1-c1ccc2nonc2c1 [Example 12, 4Benzo[1,2,5]oxadiazol-5-yl-N-(2-fluoro-ethyl)-nicotinamide]
CNc1ccc(-c2ccc3nonc3c2)cc1[N+](=O)[O-] [Example 21, (4Benzo[1,2,5]oxadiazol-5-yl-2-nitro-phenyl)-methyl-amine]
CNc1cccc(-c2ccc3nonc3c2)c1 [Example 4, (3Benzo[1,2,5]oxadiazol-5-yl-phenyl)-methyl-amine]
O=C(NCCF)c1cncc(-c2ccc3nonc3c2)c1 [Example 11, 5Benzo[1,2,5]oxadiazol-5-yl-N-(2-fluoro-ethyl)-nicotinamide]
FCCOc1ccc(-c2ccc3nonc3c2)cc1 [Example 5, 5-[4-(2-Fluoro-ethoxy)-phenyl]-benzo[1,2,5]oxadiazole]
